Tests used:
[1] = tested on: EpiSC-derived OPCs; assay: In vitro phenotypic screening of OPCs, MBP high-content imaging (percentage of oligodendrocytes); assay type: cell-based, mouse; conditions: Mus musculus, 72 h, 3 days, MBP stain, dose-response 0.5 nM to 1000 nM; read-out: OPC EC50
Summary of the method: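 EC50 was fitted by Hill equation to the MBP-positive oligodendrocyte percentage from imaging of fixed, MBP- and DAPI-stained cells. Treatment lasted 3 days at 37 °C, final doses 0.5–1000 nM over 8 points, in growth factor-free N2B27. Cells were EpiSC-derived OPCs, tested in at least two independent platings.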

[2] = molecular target: human emopamil binding protein and human 7-dehydrocholesterol reductase (hEBP-DHCR7) (Homo sapiens (Human), UniProt Q15125); assay: hEBP-DHCR7 radioligand binding assay (filter binding, membranes of co-expressing HEK293 cells); conditions: competition with [3H] radioligand, 8 doses 0.06 to 5000 nM, Ki calculated from IC50
Summary of the method: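 Compound, either single dose 1 μM or eight 5-fold dilutions from 0.06 to 5000 nM, competed with a [3H]-labelled ligand added at 25 nM for binding to co-expressing HEK293 membranes. IC50 came from nonlinear regression, with full block and DMSO as controls, then Cheng–Prusoff conversion to Ki.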

[3] = tested on: zymostenol accumulation (EBP) in EpiSC-derived OPCs; assay: GC/MS-based sterol profiling, zymostenol accumulation in EpiSC-derived OPCs; assay type: cell-based, mouse; conditions: Mus musculus, 24 h, EpiSC-derived OPCs, 24 hr, 8 doses from 0.15 nM to 333 nM; read-out: Mouse Zymostenol GCMS EC50
Summary of the method: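 Zymostenol level is expressed relative to that after 24 h with 100 nM positive-control reference, measured by full-scan GC/MS (m/z 458) with cholesterol-d7 internal standard after BSTFA derivatisation. Cells were EpiSC-derived OPCs, 100,000/well in N2B27 without growth factors, treated 24 h, from two or more independent platings.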

Chain of human emopamil binding protein and human 7-dehydrocholesterol reductase (hEBP-DHCR7) (Q15125 whole entry): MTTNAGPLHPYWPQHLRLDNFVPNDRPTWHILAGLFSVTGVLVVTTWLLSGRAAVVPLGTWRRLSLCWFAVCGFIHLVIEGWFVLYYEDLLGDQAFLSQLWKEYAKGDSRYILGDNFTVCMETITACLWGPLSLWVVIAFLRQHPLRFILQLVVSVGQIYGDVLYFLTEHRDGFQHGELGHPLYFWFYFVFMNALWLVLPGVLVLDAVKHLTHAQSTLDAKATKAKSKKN

SMILES | EC50 [1] [nM] | Ki [2] [nM] | EC50 [3] [nM]
CC(C)n1nc(-c2ccc(C(F)(F)F)nc2)nc1[C@@H]1CC[C@@H](N2CCOCC2)C1 [Compound 104, 4-((1R,3R)-3-(1-Isopropyl-3-(6-(trifluoromethyl)pyridin-3-yl)-1H-1,2,4-triazol-5-yl)cyclopentyl)morpholine] | 433 | 19.2 | 52
CC(C)n1nc(-c2cccc(C(F)(F)F)n2)nc1[C@@H]1CCC(N2CCOCC2)C1 (stereo in doubt) [26*, 4-((1S,3R)-3-(1-isopropyl-3-(6-(trifluoromethyl)pyridin-2-yl)-1H-1,2,4-triazol-5-yl)cyclopentyl)morpholine] | 85 | 22.6 | 11.7
CC(C)n1nc(-c2ccc(C(F)(F)F)c(F)c2)nc1[C@H]1CC[C@H](N2CCOCC2)C1 (single isomer, unassigned) [Compound 112*] | 196 | 90.8 | 23.8
CC(C)n1nc(-c2cccc(C(F)(F)F)n2)cc1[C@H]1[C@@H]2C[C@@H](N3CCOCC3)C[C@@H]21 [Compound 31, 4-((1R,3s,5S,6r)-6-(1-Isopropyl-3-(6-(trifluoromethyl)pyridin-2-yl)-1H-pyrazol-5-yl)bicyclo[3.1.0]hexan-3-yl)morpholine] | 643 | 100 | 241
CC(C)n1nc(-c2cccc(C(F)(F)F)c2)nc1[C@H]1[C@@H]2C[C@H](N3CCOCC3)C[C@@H]21 [19*, 4-((1R,3r,5S,6r)-6-(1-isopropyl-3-(3-(trifluoromethyl)phenyl)-1H-1,2,4-triazol-5-yl)bicyclo[3.1.0]hexan-3-yl)morpholine] | 140 | 9.93 | 7.92
CC(C)n1nc(-c2cncc(C(F)(F)F)c2)cc1[C@H]1[C@@H]2C[C@@H](N3CCO[C@H](C)C3)C[C@@H]21 (single isomer, unassigned) [40*] | 325 | 111 | 78
CCn1nc(-c2ccc(C(F)(F)F)nc2)nc1[C@H]1CC[C@H](N2CCCOCC2)CC1 [8*, 4-((1r,4r)-4-(1-ethyl-3-(6-(trifluoromethyl)pyridin-3-yl)-1H-1,2,4-triazol-5-yl)cyclohexyl)-1,4-oxazepane] | 280 | 38.2 | 44.8
COCCN1CCN([C@H]2CC[C@@H](c3nc(-c4ccc(C(F)(F)F)nc4)nn3C(C)C)C2)CC1 [Compound 83, 1-((1S,3R)-3-(1-Isopropyl-3-(6-(trifluoromethyl)pyridin-3-yl)-1H-1,2,4-triazol-5-yl)cyclopentyl)-4-(2-methoxyethyl) piperazine] | 78.4 | 10.9 | 12.5
CC(C)n1nc(-c2cnc(C(F)(F)F)nc2)cc1[C@H]1CC[C@@H](N2CCO[C@H](CF)C2)C1 (single isomer, unassigned) [Compound 133*] | 274 | 17.1 | 21.2
Cc1ccccc1-c1cc([C@H]2[C@@H]3C[C@@H](N4CCCOCC4)C[C@@H]32)n(C(C)C)n1 (single isomer, unassigned) [Compound 198*] | 105 | 20.2 | 41.3
CC(C)n1nc(-c2cncc(F)c2)cc1[C@H]1[C@@H]2C[C@@H](N3CCCOCC3)C[C@@H]21 [Compound 188*, 4-((1R,3s,5S,6r)-6-(3-(5-fluoropyridin-3-yl)-1-isopropyl-1H-pyrazol-5-yl)bicyclo[3.1.0]hexan-3-yl)-1,4-oxazepane] | 549 | 169 | 122

Stronger by EC50 [1], values ahead:

EC50 [1] [nM] | Ki [2] [nM] | EC50 [3] [nM] | SMILES
73.4 | 113 | 21.4 | FC(F)(F)c1cccc(-c2nc([C@H]3CC[C@H](N4CCCOCC4)C3)n(C3CC3)n2)n1 (single isomer, unassigned) [9*]
51.7 | 27.1 | 7.71 | CC(C)n1nc(-c2cccc(C(F)(F)F)c2)nc1[C@@H]1CC[C@@H](N2CCOCC2)C1 (single isomer, unassigned) [21*]
36.7 | 11.6 | 13.7 | CC(C)n1nc(-c2cccc(OC(F)F)c2)cc1[C@H]1[C@@H]2C[C@@H](N3CCCOCC3)C[C@@H]21 (single isomer, unassigned) [Compound 200*]
24.5 | 11 | 8.23 | CC(C)n1nc(-c2ccc(OC(F)F)cc2)cc1[C@H]1[C@@H]2C[C@H](N3CCCOCC3)C[C@@H]21 (single isomer, unassigned) [Compound 201*]
17 | 3420 | 2.14 | CC[C@@H]1CN([C@H]2CC[C@@H](c3nc(-c4cnc(C(F)(F)F)nc4)nn3C(C)C)C2)CCO1 [Compound 152, (R)-2-Ethyl-4-((1S,3R)-3-(1-isopropyl-3-(2-(trifluoromethyl)pyrimidin-5-yl)-1H-1,2,4-triazol-5-yl)cyclopentyl)morpholine]
11.7 | 8.89 | 3.15 | CC(C)n1nc(-c2ccc(C(F)(F)F)nc2)nc1[C@@H]1CC[C@H](N2CCOCC2)C1 [Compound 105, 4-((1S,3R)-3-(1-Isopropyl-3-(6-(trifluoromethyl)pyridin-3-yl)-1H-1,2,4-triazol-5-yl)cyclopentyl)morpholine]
11.3 | 14.2 | 5.46 | CC(C)n1nc(-c2cccc(C(F)(F)F)c2)cc1[C@H]1[C@@H]2C[C@@H](N3CCCOCC3)C[C@@H]21 [Compound 175*, 4-((1R,3r,5S,6r)-6-(1-Isopropyl-3-(3-(trifluoromethyl)phenyl)-1H-pyrazol-5-yl)bicyclo[3.1.0]hexan-3-yl)-1,4-oxazepane]
2.8 | 16 | 1.25 | CC(C)n1nc(-c2cncc(C(F)(F)F)c2)nc1[C@H]1[C@@H]2C[C@H](N3CCOC[C@H]3C)C[C@@H]21 [Compound 120, (R)-4-((1R,3r,5S,6R)-6-(1-Isopropyl-3-(5-(trifluoromethyl)pyridin-3-yl)-1H-1,2,4-triazol-5-yl)bicyclo[3.1.0]hexan-3-yl)-3-methylmorpholine]
